Reference: PubChem BioAssay (NCI)
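Interpolation was linear, between the two tested concentrations surrounding the appropriate level; five concentrations were tested over 48 hours in 96-well plates. TGI: total growth inhibition.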

Key:
Test in all cases: NCI-60 cell line screen, 48 h
EKVX NSCLC = tested on: EKVX NSCLC
HL-60(TB) leukemia = tested on: HL-60(TB) leukemia
HOP-62 NSCLC = tested on: HOP-62 NSCLC
IGROV1 ovarian = tested on: IGROV1 ovarian
LOX IMVI melanoma = tested on: LOX IMVI melanoma
MALME-3M melanoma = tested on: MALME-3M melanoma
NCI-H23 lung = tested on: NCI-H23 lung
NCI-H460 lung = tested on: NCI-H460 lung
OVCAR-5 ovarian = tested on: OVCAR-5 ovarian
OVCAR-8 ovarian = tested on: OVCAR-8 ovarian
RPMI-8226 leukemia = tested on: RPMI-8226 leukemia
SF-295 CNS = tested on: SF-295 CNS
SK-OV-3 ovarian = tested on: SK-OV-3 ovarian
SN12C renal = tested on: SN12C renal
SNB-19 CNS = tested on: SNB-19 CNS
SNB-75 CNS = tested on: SNB-75 CNS
UACC-257 melanoma = tested on: UACC-257 melanoma
UACC-62 melanoma = tested on: UACC-62 melanoma
SR leukemia = tested on: SR leukemia
M14 melanoma = tested on: M14 melanoma

| SMILES | TGI (EKVX NSCLC) | TGI (HL-60(TB) leukemia) | TGI (HOP-62 NSCLC) | TGI (IGROV1 ovarian) | TGI (LOX IMVI melanoma) | TGI (MALME-3M melanoma) | TGI (NCI-H23 lung) | TGI (NCI-H460 lung) | TGI (OVCAR-5 ovarian) | TGI (OVCAR-8 ovarian) | TGI (RPMI-8226 leukemia) | TGI (SF-295 CNS) | TGI (SK-OV-3 ovarian) | TGI (SN12C renal) | TGI (SNB-19 CNS) | TGI (SNB-75 CNS) | TGI (UACC-257 melanoma) | TGI (UACC-62 melanoma) | TGI (SR leukemia) | TGI (M14 melanoma) |
| --- | --- | --- | --- | --- | --- | --- | --- | --- | --- | --- | --- | --- | --- | --- | --- | --- | --- | --- | --- | --- |
| NC(=S)N/N=C/c1ccc(OC(=O)COc2ccccc2Cl)cn1 | 97.8 µM | 64.9 µM | 67.4 µM | > 100 µM | > 100 µM | > 88.7 µM | > 70.5 µM | > 100 µM | 97.9 µM | > 100 µM | > 100 µM | > 100 µM | > 100 µM | > 100 µM | > 100 µM | > 100 µM | > 92.4 µM | 42.7 µM | – | – |
| Cc1nc(N(CCO)CCO)c2sc(=S)n(-c3ccccc3)c2n1 | – | > 100 µM | > 100 µM | > 100 µM | – | > 100 µM | > 100 µM | > 100 µM | > 100 µM | > 100 µM | > 100 µM | > 100 µM | > 100 µM | – | > 100 µM | > 100 µM | > 100 µM | > 100 µM | > 100 µM | – |
| COc1cc(Cc2ccc3c(c2C#N)N(C)c2ccccc2S3)cc(OC)c1OC | > 100 µM | > 100 µM | > 100 µM | > 100 µM | > 100 µM | > 100 µM | > 100 µM | > 100 µM | > 100 µM | > 100 µM | > 100 µM | > 100 µM | > 100 µM | > 100 µM | > 100 µM | – | > 100 µM | – | > 100 µM | > 100 µM |
| CCOC(=O)C(=O)Nc1cccc(C)c1C | > 100 µM | > 100 µM | > 100 µM | > 100 µM | – | > 100 µM | > 100 µM | > 100 µM | > 100 µM | > 100 µM | > 100 µM | > 100 µM | > 100 µM | > 100 µM | > 100 µM | > 100 µM | > 100 µM | > 100 µM | > 100 µM | > 100 µM |
| BrC1=CN2C[n+]3cc(Br)c4ccccc4c3N=C2c2ccccc21 | – | 58.5 µM | 16.6 µM | 32.1 µM | 34.2 µM | 7.14 µM | 56.4 µM | 32.9 µM | 48.7 µM | 38.6 µM | 30.5 µM | 21.5 µM | 51.8 µM | 50.4 µM | 32.4 µM | 10.9 µM | 48.8 µM | 20.9 µM | 9.01 µM | 18.4 µM |
| COC(=O)C1=C(O)C(C(=O)OC)[C@@]2(O)[C@@H](C(=O)OC)CC[C@@H]1[C@@H]2C(=O)OC (some centres not stated) | 85.7 µM | 76.6 µM | 75.6 µM | – | 76.8 µM | 74.3 µM | 56.6 µM | 35.9 µM | 70.2 µM | – | 97.3 µM | – | 34.6 µM | > 100 µM | > 100 µM | 64.8 µM | > 100 µM | > 100 µM | 63.9 µM | 62.6 µM |
| CCOC(=O)/C(=N/Nc1ccc(Cl)cc1)N1C(=S)C=C(C)NN(C)C1=S | 73 µM | > 100 µM | – | > 100 µM | – | – | > 100 µM | > 100 µM | > 100 µM | 73.1 µM | > 100 µM | 42.3 µM | > 100 µM | > 100 µM | > 100 µM | 69.3 µM | > 100 µM | 90.6 µM | > 100 µM | > 100 µM |
| COc1cc(C2S/C(=C/c3ccccc3)C(=O)N2c2ccccc2Cl)cc(OC)c1OC (configuration not stated) | 50.8 µM | – | > 100 µM | – | 44.9 µM | 82.1 µM | > 100 µM | – | > 100 µM | 49.8 µM | – | > 100 µM | > 100 µM | 62.1 µM | > 100 µM | 29.6 µM | > 100 µM | > 100 µM | – | 60.5 µM |
| C/C([O-])=C(/c1nc(-c2ccc([N+](=O)[O-])o2)no1)[n+]1cc(C)ccc1C | > 100 µM | 31.6 µM | 37.3 µM | > 81.6 µM | 21.8 µM | 28.2 µM | 24.9 µM | 17.5 µM | 37.5 µM | > 76.6 µM | 55.2 µM | 24.1 µM | > 79.3 µM | 29.3 µM | 41.5 µM | > 49.9 µM | 24.2 µM | 21.3 µM | – | – |
